Key:
Assay type in all cases: in vivo
[1] = tested on: chickweed (Stellaria media); assay: Postemergence herbicidal activity, chickweed; conditions: foliar spray, visual after 2 weeks, 0 no injury, 100 complete kill
Method: (§1) Seeds of the desired test plant species were planted in Grace-Sierra MetroMix® 306 planting mixture, which typically has a pH of 6.0 to 6.8 and an organic matter content of about 30 percent, in plastic pots with a surface area of 64 square centimeters. When required to ensure good germination and healthy plants, a fungicide treatment and/or other chemical or physical treatment was applied. The plants were grown for 7-21 days in a greenhouse with an approximately 15 hr photoperiod which was maintained at about 23-29° C. during the day and 22-28° C. during the night. Nutrients and water were added on a regular basis and supplemental lighting was provided with overhead metal halide 1000 Watt lamps as necessary. The plants were employed for testing when they reached the first or second true leaf stage. A weighed amount of each test compound, determined by the highest rate to be tested, was placed in a 20 mL glass vial and was dissolved in 4 mL of a 97:3 v/v (volume/volume) mixture of acetone and dimethyl sulfoxide to obtain concentrated stock solutions. […] The concentrated stock solutions obtained were diluted with an aqueous mixture containing acetone, water, iso-propyl alcohol, dimethyl sulfoxide, Atplus 411F crop oil concentrate, and Triton X-155 surfactant (methylenebisdiamyl phenoxy polyethoxy ethanol) in a 48.5:39:10:1.5:1.0:0.02 v/v ratio to obtain spray solutions of known concentration. The solutions containing the highest concentration to be tested were prepared by diluting 2 mL aliquots of the stock solution with 13 mL of the mixture and lower concentrations were prepared by dilution of appropriate smaller portions of the stock solution. Approximately 1.5 mL aliquots of each solution of known concentration were sprayed evenly onto each of the test plant pots using a DeVilbiss atomizer driven by compressed air pressure of 2 to 4 psi (140 to 280 kilopascals) to obtain thorough coverage of each plant. Control plants were sprayed in the same manner with the aqueous mixture. In this test an application rate of 1 ppm results in the application of approximately 1 g/ha. The treated plants and control plants were placed in a greenhouse as described above and watered by sub-irrigation to prevent wash-off of the test compounds. After 2 weeks the condition of the test plants as compared with that of the untreated plants was determined visually and scored on a scale of 0 to 100 percent where 0 corresponds to no injury and 100 corresponds to complete kill.

[2] = tested on: cocklebur (Xanthium strumarium); assay: Postemergence herbicidal activity, cocklebur; conditions: foliar spray, visual after 2 weeks, 0 no injury, 100 complete kill
Method: as §1

[3] = tested on: lambsquarters (Chenopodium album); assay: Postemergence herbicidal activity, lambsquarters; conditions: foliar spray, visual after 2 weeks, 0 no injury, 100 complete kill
Method: as §1

[4] = tested on: morningglory (Ipomoea hederacea); assay: Postemergence herbicidal activity, morningglory; conditions: foliar spray, visual after 2 weeks, 0 no injury, 100 complete kill
Method: as §1

[5] = tested on: velvetleaf (Abutilion theophrasti); assay: Postemergence herbicidal activity, velvetleaf; conditions: foliar spray, visual after 2 weeks, 0 no injury, 100 complete kill
Method: as §1

viola (Viola tricolor) = assay: Postemergence herbicidal activity, viola; conditions: foliar spray, visual after 2 weeks, 0 no injury, 100 complete kill
Method: as §1

[6] = tested on: blackgrass (Alopecurus myosuroides); assay: Postemergence herbicidal activity, blackgrass; conditions: foliar spray, visual after 2 weeks, 0 no injury, 100 complete kill
Method: as §1

[7] = tested on: giant foxtail (Setaria faberi); assay: Postemergence herbicidal activity, giant foxtail; conditions: foliar spray, visual after 2 weeks, 0 no injury, 100 complete kill
Method: as §1

[8] = tested on: Rox orange sorghum (Sorghum bicolor); assay: Postemergence herbicidal activity, Rox orange sorghum; conditions: foliar spray, visual after 2 weeks, 0 no injury, 100 complete kill
Method: as §1

wild oats (Avena fatua) [9] = assay: Postemergence herbicidal activity, wild oats; conditions: foliar spray, visual after 2 weeks, 0 no injury, 100 complete kill
Method: as §1

[10] = tested on: cocklebur (Xanthium strumarium); assay: Preemergence herbicidal activity, cocklebur; conditions: soil spray, visual after 3 weeks, 0 no injury, 100 complete kill or no germination
Method: (§2) The soil matrix was contained in plastic pots with a surface area of 161 square centimeters. When required to ensure good germination and healthy plants, a fungicide treatment and/or other chemical or physical treatment was applied. A weighed amount, determined by the highest rate to be tested, of each test compound was placed in a 20 mL glass vial and was dissolved in 8 mL of a 97:3 v/v (volume/volume) mixture of acetone and dimethyl sulfoxide to obtain concentrated stock solutions. […] The stock solutions obtained were diluted with a 99.9:0.1 mixture of water and Tween® 155 surfactant (ethoxylated sorbitan fatty acid ester) to obtain application solutions of known concentration. The solutions containing the highest concentration to be tested were prepared by diluting 4 mL aliquots of the stock solution with 8.5 mL of the mixture and lower concentrations were prepared by dilution of appropriate smaller portions of the stock solution. A 2.5 mL aliquot of each solution of known concentration was sprayed evenly onto the soil of each seeded pot using a Cornwall 5.0 mL glass syringe fitted with a TeeJet TN-3 hollow cone nozzle to obtain thorough coverage of the soil in each pot. Control pots were sprayed in the same manner with the aqueous mixture. A highest application rate of 4.48 kg/ha is achieved when 50 mg of test compound is employed. The treated pots and control pots were placed in a greenhouse with an approximately 15 hr photoperiod which was maintained at about 23-29° C. during the day and 22-28° C. during the night. Nutrients and water were added on a regular basis and supplemental lighting was provided with overhead metal halide 1000 Watt lamps as necessary. The water was added by top-irrigation. After 3 weeks the condition of the test plants that germinated and grew as compared with that of the untreated plants that germinated and grew was determined visually and scored on a scale of 0 to 100 percent where 0 corresponds to no injury and 100 corresponds to complete kill or no germination.

[11] = tested on: morningglory (Ipomoea hederacea); assay: Preemergence herbicidal activity, morningglory; conditions: soil spray, visual after 3 weeks, 0 no injury, 100 complete kill or no germination
Method: as §2

[12] = tested on: pigweed (Amaranthus retroflexus); assay: Preemergence herbicidal activity, pigweed; conditions: soil spray, visual after 3 weeks, 0 no injury, 100 complete kill or no germination
Method: as §2

[13] = tested on: velvetleaf (Abutilion theophrasti); assay: Preemergence herbicidal activity, velvetleaf; conditions: soil spray, visual after 3 weeks, 0 no injury, 100 complete kill or no germination
Method: as §2

[14] = tested on: wild poinsettia (Euphorbia heterophylla); assay: Preemergence herbicidal activity, wild poinsettia; conditions: soil spray, visual after 3 weeks, 0 no injury, 100 complete kill or no germination
Method: as §2

[15] = tested on: blackgrass (Alopecurus myosuroides); assay: Preemergence herbicidal activity, blackgrass; conditions: soil spray, visual after 3 weeks, 0 no injury, 100 complete kill or no germination
Method: as §2

[16] = tested on: barnyardgrass (Echinochloa crus-galli); assay: Preemergence herbicidal activity, barnyardgrass; conditions: soil spray, visual after 3 weeks, 0 no injury, 100 complete kill or no germination
Method: as §2

[17] = tested on: crabgrass (Digitaria sanguinalis); assay: Preemergence herbicidal activity, crabgrass; conditions: soil spray, visual after 3 weeks, 0 no injury, 100 complete kill or no germination
Method: as §2

[18] = tested on: giant foxtail (Setaria faberi); assay: Preemergence herbicidal activity, giant foxtail; conditions: soil spray, visual after 3 weeks, 0 no injury, 100 complete kill or no germination
Method: as §2

[19] = tested on: Rox orange sorghum (Sorghum bicolor); assay: Preemergence herbicidal activity, Rox orange sorghum; conditions: soil spray, visual after 3 weeks, 0 no injury, 100 complete kill or no germination
Method: as §2

wild oats (Avena fatua) [20] = assay: Preemergence herbicidal activity, wild oats; conditions: soil spray, visual after 3 weeks, 0 no injury, 100 complete kill or no germination
Method: as §2

COc1cscc1S(=O)(=O)Nc1nc2c(OC)cnc(OC)n2n1 [Compound 7, N-(5,8-dimethoxy[1,2,4]triazolo[1,5-c]pyrimidin-2-yl)-4-methoxythiophene-3-sulfonamide]
STEME postemergence injury score 0-100 ([1]; 1.9 ppm): 98% | XANST postemergence injury score 0-100 ([2]; 1.9 ppm): 80% | CHEAL postemergence injury score 0-100 ([3]; 1.9 ppm): 60% | IPOHE postemergence injury score 0-100 ([4]; 1.9 ppm): 80% | ABUTH postemergence injury score 0-100 ([5]; 1.9 ppm): 80% | VIOTR postemergence injury score 0-100 (viola (Viola tricolor); 1.9 ppm): 80% | ALOMY postemergence injury score 0-100 ([6]; 1.9 ppm): 98% | SETFA postemergence injury score 0-100 ([7]; 1.9 ppm): 100% | SORBI postemergence injury score 0-100 ([8]; 1.9 ppm): 98% | AVEFA postemergence injury score 0-100 (wild oats (Avena fatua) [9]; 1.9 ppm): 98% | XANST preemergence injury score 0-100 ([10]; 4.4 g/Ha): 80% | IPOHE preemergence injury score 0-100 ([11]; 4.4 g/Ha): 85% | AMARE preemergence injury score 0-100 ([12]; 4.4 g/Ha): 95% | ABUTH preemergence injury score 0-100 ([13]; 4.4 g/Ha): 95% | EPHHL preemergence injury score 0-100 ([14]; 4.4 g/Ha): 85% | ALOMY preemergence injury score 0-100 ([15]; 4.4 g/Ha): 100% | ECHCG preemergence injury score 0-100 ([16]; 4.4 g/Ha): 99% | DIGSA preemergence injury score 0-100 ([17]; 4.4 g/Ha): 100% | SETFA preemergence injury score 0-100 ([18]; 4.4 g/Ha): 100% | SORBI preemergence injury score 0-100 ([19]; 4.4 g/Ha): 100% | AVEFA preemergence injury score 0-100 (wild oats (Avena fatua) [20]; 4.4 g/Ha): 100%

COc1sccc1S(=O)(=O)Nc1nc2c(C)cnc(OC)n2n1 [Compound 9]
STEME postemergence injury score 0-100 ([1]; 62 ppm): 95% | XANST postemergence injury score 0-100 ([2]; 62 ppm): 60% | CHEAL postemergence injury score 0-100 ([3]; 62 ppm): 40% | IPOHE postemergence injury score 0-100 ([4]; 62 ppm): 70% | ABUTH postemergence injury score 0-100 ([5]; 62 ppm): 70% | VIOTR postemergence injury score 0-100 (viola (Viola tricolor); 62 ppm): 60% | ALOMY postemergence injury score 0-100 ([6]; 62 ppm): 60% | SETFA postemergence injury score 0-100 ([7]; 62 ppm): 20% | SORBI postemergence injury score 0-100 ([8]; 62 ppm): 70% | AVEFA postemergence injury score 0-100 (wild oats (Avena fatua) [9]; 62 ppm): 10% | XANST preemergence injury score 0-100 ([10]; 70 g/Ha): 25% | IPOHE preemergence injury score 0-100 ([11]; 70 g/Ha): 10% | AMARE preemergence injury score 0-100 ([12]; 70 g/Ha): 40% | ABUTH preemergence injury score 0-100 ([13]; 70 g/Ha): 30% | EPHHL preemergence injury score 0-100 ([14]; 70 g/Ha): 10% | ALOMY preemergence injury score 0-100 ([15]; 70 g/Ha): 100% | ECHCG preemergence injury score 0-100 ([16]; 70 g/Ha): 0% | DIGSA preemergence injury score 0-100 ([17]; 70 g/Ha): 10% | SETFA preemergence injury score 0-100 ([18]; 70 g/Ha): 15% | SORBI preemergence injury score 0-100 ([19]; 70 g/Ha): 50% | AVEFA preemergence injury score 0-100 (wild oats (Avena fatua) [20]; 70 g/Ha): 30%

— patent US6645918B1, “N-([1,2,4]triazoloazinyl)thiophenesulfonamide compounds and their use as herbicides” (Dow AgroSciences LLC, priority 2000, dated 2003)
